Experimental data published in the NIST ThermoML archive (doi:10.1016/j.tca.2007.04.006).

Experiment: molar heat capacity at constant pressure
Conditions: 101.33 kPa, Crystal, Vacuum adiabatic calorimetry

Nc1ccc([N+](=O)[O-])cn1 [2-amino-5-nitropyridine]
Conditions | molar heat capacity at constant pressure [J/K/mol]
80 K | 52.33
80.24 K | 52.77
84.16 K | 54.56
85 K | 55.34
87.02 K | 56.26
89.97 K | 58.05
90 K | 58.25
93.01 K | 60.06
95 K | 61.07
96.12 K | 61.79
99.15 K | 63.52
100 K | 63.81
102.11 K | 65.16
105 K | 66.48
105.16 K | 66.83
108.3 K | 68.54
110 K | 69.08
111.38 K | 69.97
114.4 K | 71.41
115 K | 71.62
117.37 K | 72.83
120 K | 74.11
120.43 K | 74.39
123.58 K | 76.05
125 K | 76.55
126.69 K | 77.4
129.75 K | 78.85
130 K | 78.95
132.77 K | 80.21
135 K | 81.31
135.75 K | 81.69
138.82 K | 82.97
140 K | 83.65
141.99 K | 84.37
145 K | 85.96
145.12 K | 85.83
148.21 K | 87.22
150 K | 88.25
151.26 K | 88.71
154.29 K | 90.07
155 K | 90.53
157.29 K | 91.42
160 K | 92.79
160.26 K | 92.54
163.32 K | 93.8
165 K | 95.05
166.47 K | 95.36
169.59 K | 96.53
170 K | 97.31
172.69 K | 97.56
175 K | 99.56
175.76 K | 99.17
178.81 K | 100.66
180 K | 101.83
181.83 K | 101.77
184.86 K | 103.74
185 K | 104.09
188 K | 105.44
190 K | 106.38
191.24 K | 107.04
194.48 K | 108.11
195 K | 108.67
197.71 K | 110.07
200 K | 110.98
200.95 K | 111.83
204.28 K | 113.75
205 K | 113.31
207.71 K | 115.82
210 K | 115.66
211.1 K | 117.36
214.45 K | 118.48
215 K | 118.02
217.75 K | 119.73
220 K | 120.42
220.98 K | 121.46
224.24 K | 123.44
225 K | 122.83
227.37 K | 125.24
230 K | 125.27
230.47 K | 126.78
233.53 K | 128
235 K | 127.73
236.7 K | 129.18
239.83 K | 130.77
240 K | 130.22
242.82 K | 132.21
245 K | 132.74
245.9 K | 133.33
249 K | 134.92
250 K | 135.28
252.08 K | 136.09
255 K | 137.85
255.25 K | 137.55
258.39 K | 138.82
260 K | 140.44
261.52 K | 140.61
264.62 K | 142.67
265 K | 143.05
267.71 K | 144.57
270 K | 145.69
270.79 K | 146.14
273.84 K | 147.16
275 K | 148.34
276.89 K | 148.4
279.92 K | 149.95
280 K | 151.02
282.94 K | 151.57
285 K | 153.71
286.05 K | 152.95
289.25 K | 154.4
290 K | 156.42
292.39 K | 157.06
295 K | 159.13
295.48 K | 158.97
298.15 K | 160.85
298.56 K | 161.47
300 K | 161.86
301.64 K | 163.12
304.71 K | 164.66
305 K | 164.59
307.77 K | 165.74
310 K | 167.33
310.83 K | 167.2
313.87 K | 168.75
315 K | 170.06
316.9 K | 170.43
319.93 K | 172.15
320 K | 172.79
323.02 K | 174.56
325 K | 175.51
326.19 K | 175.6
329.34 K | 177.96
330 K | 178.22
332.48 K | 180.37
335 K | 180.91
335.62 K | 182.54
338.77 K | 183.77
340 K | 183.58
341.9 K | 185.05
345 K | 186.22
345.02 K | 186.91
348.14 K | 188.46
350 K | 188.82
351.24 K | 190.04
354.33 K | 191.86
355 K | 191.39
357.42 K | 193.4
360 K | 193.92
360.58 K | 194.97
363.8 K | 195.55
365 K | 196.39
367.02 K | 197.03
370 K | 198.81
370.23 K | 198.93
373.42 K | 200.16
375 K | 201.16
376.61 K | 202.18
379.79 K | 203.08
380 K | 203.44
382.96 K | 204.62
385 K | 205.64
386.12 K | 205.85
389.27 K | 207.34
390 K | 207.76
392.45 K | 208.4
395 K | 209.78
395.48 K | 209.36
